Source: ChEMBL document CHEMBL5550194, “Design and synthesis of phosphoryl-substituted steroidal pyridazines (Pho-STPYRs) as potent estrogen receptor alpha inhibitors: targeted treatment of hormone-dependent breast cancer cells” (RSC Med Chem, 2024)
pIC50: −log10 of the molar value.

Legend:
MCF7 = test: Antiproliferative activity against human MCF7 cells assessed as inhibition of cell growth incubated for 72 hrs by MTT assay; format: functional, cell-based; conditions: MCF7, 72 h
MDA-MB-231 = test: Antiproliferative activity against human MDA-MB-231 cells assessed as inhibition of cell growth incubated for 72 hrs by MTT assay; format: functional, cell-based; conditions: MDA-MB-231, 72 h

Compound	pIC50 (MCF7)	pIC50 (MDA-MB-231)
CC(C)(C)NP(=O)(NC(C)(C)C)c1nncc2c1[C@@]1(C)CC[C@H]3[C@@H](CC=C4CC(Cl)CC[C@@]43C)[C@@H]1C2 (some centres not stated)	4.95	4.81
CC(C)(C)NP(=O)(NC(C)(C)C)c1nncc2c1[C@@]1(C)CC[C@H]3[C@@H](CC=C4C[C@@H](O)CC[C@@]43C)[C@@H]1C2	4.61	< 4.60
COc1ccc2c(c1)CC[C@@H]1[C@@H]2CC[C@]2(C)c3c(cnnc3P(=O)(NC(C)(C)C)NC(C)(C)C)C[C@@H]12	4.90	4.78
CC(C)(C)NP(=O)(NC(C)(C)C)c1nncc2c1[C@@]1(C)CC[C@H]3[C@@H](CCC4=CC(=O)CC[C@@]43C)[C@@H]1C2	4.73	4.68
CC(=O)O[C@H]1CC[C@@]2(C)C(=CC[C@@H]3[C@@H]2CC[C@]2(C)c4c(cnnc4P(=O)(c4ccccc4)c4ccccc4)C[C@@H]32)C1	4.85	4.75
CC(C)(C)NP(=O)(NC(C)(C)C)c1nncc2c1[C@@]1(C)CC[C@@H]3c4ccc(O)cc4CC[C@H]3[C@@H]1C2	4.65	< 4.60
CC(=O)O[C@H]1CC[C@@]2(C)C(=CC[C@@H]3[C@@H]2CC[C@]2(C)c4c(cnnc4P(=O)(NC(C)(C)C)NC(C)(C)C)C[C@@H]32)C1	4.79	< 4.60
C[C@]12CC[C@H]3[C@@H](CCC4Cc5c(cnnc5P(=O)(Nc5ccccc5)Nc5ccccc5)C[C@@]43C)[C@@H]1CC[C@@H]2O (some centres not stated)	5.03	4.78
C[C@]12CC[C@H](O)CC1=CC[C@@H]1[C@@H]2CC[C@]2(C)c3c(cnnc3P(=O)(c3ccccc3)c3ccccc3)C[C@@H]12	4.76	5.13
C[C@]12CCC(Cl)CC1=CC[C@@H]1[C@@H]2CC[C@]2(C)c3c(cnnc3P(=O)(Nc3ccccc3)Nc3ccccc3)C[C@@H]12 (some centres not stated)	< 4.60	< 4.60
C[C@]12CC[C@@H]3c4ccc(O)cc4CC[C@H]3[C@@H]1Cc1cnnc(P(=O)(c3ccccc3)c3ccccc3)c12	< 4.60	< 4.60
